This note sets out measurements from US20250326785A1, “SODIUM SALT AND ETHANOLAMINE SALT OF 23-HYDROXYTORMENTIC ACID” (HUYABIO International, LLC, priority 2024, published 2025).

Entries after “also recorded” stand apart in the source; their conditions may differ.

Series [1] relates to Adult rats (Sprague Dawley) with MI by LAD ligation. Nature of the series: Rat myocardial infarction model: pressure-volume catheter measurement. It counts as in vivo. The source says: (§1) Animal Model and Myocardial Infarction: Adult rats (Sprague Dawley (SD), body weight, -250 g) were used to generate a model with MI by LAD ligation of the heart as described in the previous study (Chongyu Zhang, Meng-Hsuan Hsieh, Song-Yi Wu, Shu-Hong Li, Jun Wu, Shi-Ming Liu, Hao-Ji Wei, Richard D. Weisel, Hsing-Wen Sung, Ren-Ke Li, “A self-doping conductive polymer hydrogel that can restore electrical impulse propagation at myocardial infarct to prevent cardiac arrhythmia and preserve ventricular function,” Biomaterials, Volume 231, 2020, 119672, ISSN 0142-9612). In brief, each rat was pre-medicated with 5% isoflurane in a chamber.
(§2) The selected rats having similar FS were randomly divided into 6 groups: (1) Negative control group (treated with 40% SBCD); (2) Positive control group (with HBI-3802, 2 mg/kg /day); (3) Dose 1 (HBI-3808 2 mg/kg/day); (4) Dose 2 (HBI-3808 0.64 mg/kg day); (5) Dose 3 (HBI-3808 0.2 mg/kg/day); and (6) Sham control (No myocardial infarction and treated with 40% SBCD).
Oral Treatment: Six days after permanent LAD ligation, the selected rats received the first daily treatment. HBI-3808 (at 1 of the 3 doses) or 3802 at 2 mg/kg/day (1 ml/rat/day) delivered by gastric gavage daily for 14 days (2). 40% SB-CD alone (1 ml/rat/day) was similarly administered to rats in the control and sham groups.
Pressure-Volume Measurement: End-point functional and morphological assessments were performed at 21 days after first treatment (27 days post myocardial infarction). Each rat was anesthetized as described above (Myocardial Infarction), and ventilated. The sternotomy was performed, and a calibrated Millar conductance pressure-volume catheter (Millar Instruments, USA) was inserted into the LV cavity through the apex. Pressure and volume data were collected with the Millar software. Parallel conductance was evaluated after the injection of hypertonic saline solution into the right jugular vein, with the volume measurements corrected for the parallel conductance. To analyze the LV pressure and volume relationship, pressure and volume data were acquired, and real-time pressure-volume loops were constructed. Stroke work (SW) and dP/dt max (indices of systolic function) and dP/dt min and Tau_w (index of diastolic function) as well as LV volumes were compared between the groups.

The test system is the same in series [2]. Nature of the series: Rat myocardial infarction model: morphological studies (scar area and thickness, computed planimetry). The series is classed as in vivo. The conditions noted are these: for scar areas: p<0.05 and 0.01 respectively.
Source text: as §1, §2
Morphological Studies: After cardiac functional measurements, the animals were euthanized. The hearts were rapidly excised, fixed with 10% formaldehyde for 7 days, sliced into 2 mm thick slices, and photographed.
Cross-sectional areas of the left ventricular free wall (LVFW) and scar tissue were measured using computed planimetry. Surface areas of the epicardial LVFW and scar tissue were measured as the sum of the epicardial length multiplied by the slice thickness (2 mm). The surface area percentage of scar tissue in the LVFW was calculated as follows: [(epicardial scar area)/(epicardial LVFW area)×100]. The thickness of scar area was presented as an average of wall thickness measured at the middle and at each edge of the scar from the slice having the thinnest scar.

The nature of series [3]: Single-dose IV and oral pharmacokinetic study in rabbits. The series is classed as in vivo, New Zealand White Rabbits. The conditions noted are these: rabbit. The source says: Eight groups (n=3) of rabbits received single doses of HBI-3802 or the sodium salt (form 5) HBI-3808 either by intravenous dosing or by oral dosing. HBI-3802 was formulated in 20% PG +80% (20% Captisol in pH 7.4 PBS buffer), and HBI-3808 was formulated in 5% NMP+15% EtOH+10% Tween 80+70% (20% Captisol in pH 7.4 PBS buffer). In addition, normal or enteric coated capsules were used to orally deliver the sodium salt (form 5) of HBI-3808. To allow determination of oral absolute bioavailability, both HBI-3802 and HBI-3808 were delivered IV at a dose of 0.3 mg/kg and blood samples obtained at 0, 0.25, 0.5, 0.75, 1,2,4,8,12,24,48, and 72 hours after dosing for derivation of plasma used to determine plasma concentrations by LC-MS. The HBI-3802 0.3 mg/kg plasma concentrations were compared to plasma concentrations obtained at the same time points from rabbits receiving single oral doses of […] at 1 or 5 mg/kg. The HBI-3808 0.3 mg/kg plasma concentrations were compared to plasma concentrations from groups of rabbits receiving oral gavage of 1 mg/kg HBI-3808 solution or 5 mg/kg HBI-3808 solution and from rabbits receiving 5 mg/kg of the sodium salt (form 5) of HBI-3808 in normal capsules or in enteric coated capsules.

[4] abbreviates: 2 mg/kg/day, vs 2 mg/kg HBI-3802, 0.64 and 0.2 mg/kg HBI-3808 and control, p<0.05 and 0.01.
[5] abbreviates: 0.2 mg/kg/day, control vs treated.
[6] abbreviates: 0.64 mg/kg/day, control vs treated.
Setting [7] is: PO 5 mg/kg in enteric coated capsules.

As for `C[C@@H]1CC[C@]2(C(=O)O)CC[C@]3(C)C(=CCC4[C@@]5(C)C[C@@H](O)[C@H](O)[C@@](C)(CO)C5CC[C@]43C)C2[C@]1(C)O` (stereo partly drawn) [HBI-3808, 23-hydroxytormentic acid], the cardiac diastolic function result in series [1] (0.2 mg/kg/day, vs control at 21 days after treatment, p<0.01) is “better cardiac diastolic function compared with control group”. The cardiac systolic function entry in series [1] (0.2 mg/kg/day, vs control at 21 days after treatment, p<0.05) is “better cardiac systolic function compared with control group”. For the same compound, the “left ventricular end systolic volumes (ESV)” value in series [1] (0.2 mg/kg/day, vs control, p<0.02) is listed as “significantly smaller”; in series [1] (setting [4]), “smaller”. Moreover, the “Left ventricular end diastolic volumes (EDV)” value in series [1] (0.64 mg/kg/day, vs 0.2 mg/kg group, p<0.01) is given as “significantly smaller”; in series [1] (2 mg/kg/day, vs 0.64 and 0.2 mg/kg HBI-3808 and control, p<0.01), “smaller”. For the same compound, the “stroke work (SW) and dP/dt max (indices of systolic function)” value in series [1] (2 mg/kg/day, 21 days after treatment, vs 2 mg/kg HBI-3802, 0.64 and 0.2 mg/kg HBI-3808 and control, p<0.01) is “significantly greater”. Moreover, the “end diastolic volumes compared with non-infarcted sham animals” value in series [1] (2 mg/kg/day, Day 21) is given as “the same; also recorded: equivalent to non-infarcted sham animals”. The “dP/dt min and Tau_w (index of diastolic function)” value in series [1] (setting [4]) was “also improved”. Besides, the scar thickness result is listed as “thinner in the control group” in series [2] (setting [5]); “thinner in the control group” in series [2] (setting [6]); “thinner in the control group” in series [2] (2 mg/kg/day, 21 days after first treatment). Besides, the scar areas entry in series [2] (setting [5]) and in series [2] (setting [6]) was “larger in the control group” in each case. Further, in series [2] (2 mg/kg/day, 21 days after first treatment, p<0.01), the “scar (infarct) areas” value is listed as “smaller infarct areas than the 2 mg/kg HBI-3802 group”.
Turning to `CC1CCC2(C(=O)[O-])CCC3(C)C(=CCC4C5(C)CC(O)C(O)C(C)(CO)C5CCC43C)C2C1(C)O.[Na+]` (stereo not drawn) [HBI-3808 sodium salt of Pattern 5, sodium salt of 23-hydroxytormentic acid], the bioavailability (usually dose-corrected exposure relative to a reference, in per cent) in series [3] (PO 1 mg/kg in 5% NMP+15% EtOH+10% tween 80+70% (20% Captisol in pH 7.4 PBS buffer)) is reported as 17.9%; in series [3] (PO 5 mg/kg in 5% NMP+15% EtOH+10% tween 80+70% (20% Captisol in pH 7.4 PBS buffer)) it was 27.7%; in series [3] (setting [7]), 10.9%; in series [3] (PO 5 mg/kg in normal capsules), 10.7%. For the same compound, in series [3] (setting [7]), the “absorption onset delayed until” value was 8 h. Moreover, the “dose dependence of Cmax and AUC” value in series [3] (PO 1 and 5 mg/kg solution) is “dose proportional increases with low variability”.
